These results are taken from patent US20210085467A1, “SELECTIVE TARGETED RELEASE” (WEST VIRGINIA UNIVERSITY, priority 2018, published 2021).

For one assay, the system named is free floating bacteria. The assay is described as follows: Drug levels necessary to treat free floating bacteria. As to conditions: planktonic bacteria.
The subject of another assay is biofilm infections. Briefly: Drug levels necessary to treat biofilm infections.

As for `CN[C@H](CC(C)C)C(=O)N[C@H]1C(=O)N[C@@H](CC(N)=O)C(=O)N[C@H]2C(=O)N[C@H]3C(=O)N[C@H](C(=O)N[C@H](C(=O)O)c4cc(O)cc(O)c4-c4cc3ccc4O)[C@H](O)c3ccc(c(Cl)c3)Oc3cc2cc(c3O[C@@H]2O[C@H](CO)[C@@H](O)[C@H](O)[C@H]2O[C@H]2C[C@](C)(N)[C@H](O)[C@H](C)O2)Oc2ccc(cc2Cl)[C@H]1O` [vancomycin], in the assay on free floating bacteria, the “drug levels necessary to treat free floating bacteria” value is 1 to 10 µg/mL. The “drug levels necessary to treat biofilm infections” value with biofilm infections fell in the range of 10 to 100 µg/mL.
